Assay results from ChEMBL document CHEMBL1201862, “PubChem BioAssay data set” (2004).
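Protocol summary: plate cells (96-well), add compound at 5 concentrations, incubate 48 h, interpolate endpoints linearly. GI50 is the concentration that inhibits growth by half.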 Calls of active or inactive are those of the source. Rule as the data show it: active = GI50 up to about 1.1 µM and inactive = higher.

Key:
Experiment in all cases: NCI-60 cell line screen, 48 h
[1] = test system: IGROV-1
[2] = test system: NCI-H522
[3] = test system: HCC 2998
[4] = test system: PC-3
[5] = test system: NCI-H460
[6] = test system: UACC-62
[7] = test system: SN12C
[8] = test system: U-251
[9] = test system: TK-10
[10] = test system: RPMI-8226
[11] = test system: MOLT-4
[12] = test system: UACC-257
[13] = test system: OVCAR-4
[14] = test system: SF-295
[15] = test system: SF-268
[16] = test system: Malme-3M
[17] = test system: 786-0
[18] = test system: HCT-116
[19] = test system: CCRF-CEM
[20] = test system: OVCAR-8
[21] = test system: NCI-H226
[22] = test system: DU-145
[23] = test system: COLO 205
[24] = test system: SF-539
[25] = test system: NCI-H23
[26] = test system: SNB-75
[27] = test system: SK-OV-3
[28] = test system: HOP-62
[29] = test system: HL-60
[30] = test system: RXF 393
[31] = test system: KM12
[32] = test system: ACHN
[33] = test system: SR
[34] = test system: T47D
[35] = test system: MDA-N
[36] = test system: NCI/ADR-RES
[37] = test system: UO-31
[38] = test system: A549
[39] = test system: BT-549
[40] = test system: Hs-578T
[41] = test system: EKVX
[42] = test system: OVCAR-5
[43] = test system: MDA-MB-435
[44] = test system: SK-MEL-5
[45] = test system: MDA-MB-231
[46] = test system: MCF7
[47] = test system: M14
[48] = test system: HCT-15
[49] = test system: HT-29
[50] = test system: K562
[51] = test system: SW-620
[52] = test system: HOP-92
[53] = test system: OVCAR-3
[54] = test system: SNB-19
[55] = test system: SK-MEL-28
[56] = test system: CAKI-1
[57] = test system: LOX IMVI
[58] = test system: SK-MEL-2

Cn1cc(NC(=O)Nc2cc(C(=O)Nc3cc(C(=O)Nc4ccc(S(=O)(=O)O)c5cc(S(=O)(=O)O)ccc45)n(C)c3)n(C)c2)cc1C(=O)Nc1cc(C(=O)Nc2ccc(S(=O)(=O)O)c3cc(S(=O)(=O)O)ccc23)n(C)c1
GI50 [1]: > 100 µM (inactive)
GI50 [2]: > 100 µM (inactive)
GI50 [3]: > 100 µM (inactive)
GI50 [4]: > 100 µM (inactive)
GI50 [5]: > 100 µM (inactive)
GI50 [6]: > 100 µM (inactive)
GI50 [7]: > 100 µM (inactive)
GI50 [8]: > 100 µM (inactive)
GI50 [9]: 83.8 µM (inactive)
GI50 [10]: > 100 µM (inactive)
GI50 [11]: > 100 µM (inactive)
GI50 [12]: > 100 µM (inactive)
GI50 [13]: > 100 µM (inactive)
GI50 [14]: > 100 µM (inactive)
GI50 [15]: > 100 µM (inactive)
GI50 [16]: > 100 µM (inactive)
GI50 [17]: > 100 µM (inactive)
GI50 [18]: > 100 µM (inactive)
GI50 [19]: > 100 µM (inactive)
GI50 [20]: > 100 µM (inactive)
GI50 [21]: > 100 µM (inactive)
GI50 [22]: > 100 µM (inactive)
GI50 [23]: > 100 µM (inactive)
GI50 [24]: > 100 µM (inactive)
GI50 [25]: > 100 µM (inactive)
GI50 [26]: > 100 µM (inactive)
GI50 [27]: > 100 µM (inactive)
GI50 [28]: > 100 µM (inactive)
GI50 [29]: > 100 µM (inactive)
GI50 [30]: > 100 µM (inactive)
GI50 [31]: > 100 µM (inactive)
GI50 [32]: > 100 µM (inactive)
GI50 [33]: > 100 µM (inactive)
GI50 [34]: > 100 µM (inactive)
GI50 [35]: > 100 µM (inactive)
GI50 [36]: > 100 µM (inactive)
GI50 [37]: > 100 µM (inactive)
GI50 [38]: 85.7 µM (inactive)
GI50 [39]: > 100 µM (inactive)
GI50 [40]: > 100 µM (inactive)
GI50 [41]: 34 µM (inactive)
GI50 [42]: > 100 µM (inactive)
GI50 [43]: > 100 µM (inactive)
GI50 [44]: > 100 µM (inactive)
GI50 [45]: > 100 µM (inactive)
GI50 [46]: > 100 µM (inactive)
GI50 [47]: > 100 µM (inactive)
GI50 [48]: > 100 µM
GI50 [49]: > 100 µM (inactive)
GI50 [50]: > 100 µM (inactive)
GI50 [51]: > 100 µM (inactive)
GI50 [52]: 51.9 µM (inactive)
GI50 [53]: > 100 µM (inactive)
GI50 [54]: > 100 µM (inactive)
GI50 [55]: > 100 µM (inactive)

O=C(CN1CCCC1)Nc1ccc2sc3ccccc3c(=O)c2n1
GI50 [1]: 23.2 µM (inactive)
GI50 [2]: 11.2 µM (inactive)
GI50 [3]: 13.9 µM (inactive)
GI50 [4]: 14.7 µM (inactive)
GI50 [5]: 22 µM (inactive)
GI50 [6]: 19.9 µM (inactive)
GI50 [7]: 16.4 µM (inactive)
GI50 [8]: 18.7 µM (inactive)
GI50 [9]: 33 µM (inactive)
GI50 [10]: 21.3 µM (inactive)
GI50 [11]: 1.91 µM (inactive)
GI50 [12]: > 10 µM (inactive)
GI50 [13]: 34.6 µM (inactive)
GI50 [14]: 22.6 µM (inactive)
GI50 [15]: 24.7 µM (inactive)
GI50 [17]: 14.9 µM (inactive)
GI50 [18]: 13.9 µM (inactive)
GI50 [19]: 10.5 µM (inactive)
GI50 [20]: 16.8 µM (inactive)
GI50 [22]: 25.9 µM (inactive)
GI50 [56]: 18 µM (inactive)
GI50 [57]: 11 µM (inactive)
GI50 [23]: 14 µM (inactive)
GI50 [24]: 17.1 µM (inactive)
GI50 [25]: 24.2 µM (inactive)
GI50 [26]: 19.7 µM (inactive)
GI50 [27]: 20.7 µM (inactive)
GI50 [28]: 16.9 µM (inactive)
GI50 [29]: > 10 µM (inactive)
GI50 [31]: 19.5 µM (inactive)
GI50 [32]: 12.5 µM (inactive)
GI50 [33]: 24.9 µM (inactive)
GI50 [34]: 30.1 µM (inactive)
GI50 [35]: 20.8 µM (inactive)
GI50 [36]: 15.5 µM (inactive)
GI50 [37]: 14.2 µM (inactive)
GI50 [38]: 16.6 µM (inactive)
GI50 [39]: 25.3 µM (inactive)
GI50 [40]: 21.2 µM (inactive)
GI50 [41]: 32.7 µM (inactive)
GI50 [42]: 24.4 µM (inactive)
GI50 [43]: 14.7 µM (inactive)
GI50 [44]: 16.5 µM (inactive)
GI50 [45]: 26.4 µM (inactive)
GI50 [46]: 27.2 µM (inactive)
GI50 [47]: 24 µM (inactive)
GI50 [48]: 23.2 µM
GI50 [49]: 34 µM (inactive)
GI50 [50]: 6.82 µM (inactive)
GI50 [51]: 4.97 µM (inactive)
GI50 [52]: 27.3 µM (inactive)
GI50 [53]: 42.9 µM (inactive)
GI50 [58]: 21.1 µM (inactive)
GI50 [54]: 32.7 µM (inactive)
GI50 [55]: 19.3 µM (inactive)
